Measured values taken from patent US6946076B2, “Removal of phosphate from water” (Dudley Mills Pty Ltd., priority 2001, dated 2005).

Settings: made by mixing lanthanum chloride, citric acid and sodium hydroxide solutions

## lanthanum hydroxy-citrate
  content of clear stable solutions: up to 200 g/l
